From paper PMC5760710, “The evolution of substrate discrimination in macrolide antibiotic resistance enzymes” (Nature Communications, 2018) come the findings set out here.

≈ marks a conversion by molar mass, not a printed value.

Assay [1] concerns T1, E. coli BW25113 ΔbamBΔtolC.
T1 construct: BW25113 ΔbamBΔtolC empty vector pGDP4
Put plainly: microbe, parasite or virus in culture. The conditions noted are these: Escherichia coli, BW25113, 24 h; empty vector. Here is the method: (§1) mphB was codon optimized, synthetized as a gBlock (IDT) and cloned into pET28a with an N-terminal histidine tag. The codon optimized mphB sequence is in Supplementary Table 17. mphI was previously cloned into pET22b[36]. pGDP4 is a derivative of pET28a with the multiple-cloning site under the control of the constitutive lac promoter. mphI was subcloned into pGDP4 using the XbaI and XhoI restriction sites. E. coli was routinely cultured on LB-Lennox (Bioshop) at 37 °C overnight, and either 100 µg mL^−1 ampicillin or 50 µg mL^−1 kanamycin was used for plasmid selection. E. coli TOP10 (Invitrogen) was used for routine cloning experiments and susceptibility testing of mphs cloned into pGDP4. E. coli BL21(DE3) (Stratagene, USA)was used for protein overexpression experiments. E. coli BW25113 ΔbamBΔtolC is an antibiotic hypersensitive, and was used for susceptibility testing of Mphs cloning into pGDP4. Antibiotic susceptibility testing was performed according to the Clinical and Laboratory Standards Institute guidelines[74] for determining minimal inhibitory concentration (MIC) in 96-well plates (Sarstedt, Germany) in duplicate. MIC values were reproducible. A saline suspension of OD600 of 0.1 was made from 2–3 colonies of a fresh overnight, and diluted 1:200 into Mueller-Hinton Broth (BD Biosciences). […] Susceptibility assays were performed at least two independent times.

Assay [2] concerns the target T2, MphB (Escherichia coli, UniProt A0A0H3EUF3).
T2 construct: codon-optimized gene, N-terminal His tag in pET28a, expressed in E. coli BL21(DE3), Ni-NTA purified
The assay is described as follows: biochemical. The arrangement: PK/LDH-coupled continuous assay of macrolide phosphorylation; steady-state kinetics, NADH absorbance. The conditions noted are these: substrate inhibition. As to the method:
(§2) Steady-state kinetics for Mphs were measured using the continuous PK/LDH-coupled assay[27],[32],[36],[71]. Reactions were performed in 96-well plates (Nunc, Thermo Scientific) using Spectramax Plus384 (Molecular Devices) in duplicate. Individual reactions were 100 µL and contained 50 mM HEPES pH 7.5, 40 mM KCl, 10 mM MgCl2, 0.2 mM NADH, 3.5 mM PEP, and 4.8 U PK/LDH (pyruvate kinase/lactate dehydrogenase). […] For determining the Km for macrolides, GTP was maintained at 200 µM and macrolides were varied between 0.49 µM and 1000 µM. Enzyme efficiency varied considerably between substrates, and therefore some enzymes were used at different concentrations depending on the substrate in order to produce a linear range suitable for Km determination. These concentrations were as follows; MphB 140 nM (most substrates), MphB 36 nM (josamycin), MphI 45 nM (descladinose macrolides), MphI 1.44 µM (C3 cladinose macrolides), Azi_1.1 90 nM (all substrates), Ery_1 (all substrates), MphK 680 nM (all substrates), MphIS111R/T166E/P211L 90 nM (descladinose macrolides), MphIS111R/T166E/P211L 1.43 µM (C3 cladinose macrolides), MphIM40A/S111R/T166E 22 nM (descladinose macrolides), MphIM40A/S111R/T166E 430 nM (C3 cladinose macrolides), MphIS111R/T166E 22 nM (descladinose macrolides), MphIS111R/T166E 1.43 µM (C3 cladinose macrolides). Enzyme kinetics experiments were performed at least two independent times. Steady-state kinetics of Mphs

For assay [3], the target named is T3, MphK (Bacillus subtilis, UniProt P42242).
T3 construct: full-length, His-tagged, expressed in E. coli BL21(DE3), Ni-NTA purified
The arrangement: PK/LDH-coupled continuous assay of macrolide phosphorylation; steady-state kinetics, NADH absorbance. The note with it: substrate inhibition. As to the method:
as §2, with “Steady-state kinetics of Mphs” left out

Assay [4] has as its target T4, MphH (Brachybacterium faecium, UniProt C7MEP1).
T4 construct: pMCSG53, N-terminal His6 tag and TEV site, crystallized
The assay is described as follows: X-ray crystal structure. The note with it: macrolide-binding cleft; 5 mM azithromycin. The format is binding.

In assay [5] the test system is T5, MphI.
T5 construct: full-length, His-tagged in pET22b, expressed in E. coli BL21(DE3), Ni-NTA purified; primers span nt 1-927
The assay is described as follows: PK/LDH-coupled continuous assay. Format: biochemical, Paenibacillus sp. LC231. The conditions noted are these: 200 uM GTP, 10 mM MgCl2, 40 mM KCl, pH 7.5.

In assay [6] the test system is T6, E. coli BW25113 ΔbamBΔtolC (vector).
T6 construct: BW25113 ΔbamBΔtolC, empty vector
The assay is described as follows: microbe, parasite or virus in culture. On the set-up: CLSI broth microdilution MIC in Mueller-Hinton broth. The note with it: Escherichia coli, BW25113, 24 h. Here is the method:
as §1

As for `CO[C@@H]1[C@@H](O[C@@H]2O[C@H](C)[C@@H](O[C@H]3C[C@@](C)(O)[C@@H](O)[C@H](C)O3)[C@H](N(C)C)[C@H]2O)[C@@H](CC=O)C[C@@H](C)[C@@H](O[C@H]2CC[C@H](N(C)C)[C@@H](C)O2)/C=C/C=C/C[C@@H](C)OC(=O)C[C@H]1O` [Spiramycin], the MIC in assay [1] was 2 µg/mL (≈ 2.37 µM). The Ki was determined as 39 ± 16 µM in assay [2] and 750 ± 160 µM in assay [3].
`CC[C@H]1OC(=O)[C@H](C)[C@@H](O[C@H]2C[C@@](C)(OC)[C@@H](O)[C@H](C)O2)[C@H](C)[C@@H](O[C@@H]2O[C@H](C)C[C@H](N(C)C)[C@H]2O)[C@](C)(O)C[C@@H](C)CN(C)[C@H](C)[C@@H](O)[C@]1(C)O` [azithromycin] came in with an MIC in assay [1] of 0.063 µg/mL (≈ 0.0841 µM). Further, in assay [4], the X-ray crystal structure result is given as “MphH (Se-Met) azithromycin complex (5UXD)”. For the same compound, the Km in assay [5] turned out to be 56 ± 3 µM.
With `CO[C@@H]1[C@@H](O[C@@H]2O[C@H](C)[C@@H](O[C@H]3C[C@@](C)(O)[C@@H](OC(=O)CC(C)C)[C@H](C)O3)[C@H](N(C)C)[C@H]2O)[C@@H](CC=O)C[C@@H](C)[C@@H](O)/C=C/C=C/C[C@@H](C)OC(=O)C[C@H]1OC(C)=O` [josamycin], in assay [6], the MIC fell in the range of 2 to 4 µg/mL (≈ 2.42 to 4.83 µM).
